Drawing on patent US5945413A, “Aspartyl protease inhibitors” (Vertex Pharmaceuticals Incorporated, priority 1996, dated 1999), this text covers Ki for 40 compounds.

A word on the Ki: it is a dissociation constant, usually derived from enzyme kinetics or from competition with a known ligand. Read a low Ki as tighter binding.

The first assay has as its target HIV-1 protease (Human immunodeficiency virus type 1 group M subtype B, UniProt P04585). Nature of the assay: inhibition constants against HIV-1 protease (method of Pennington et al.). Type of assay: biochemical.
Conditions: not given
The text has this: We have measured the inhibition constants of each compound against HIV-1 protease using the method described essentially by M. W. Pennington et al., Peptides 1990, Gimet, E. and D. Andrew, Eds., Escom, Leiden, Netherlands (1990); and the method described essentially by Partaledis et al., J. Virol., 69, pp. 5228-35 (1995).
Using the method described by Pennington et al. (supra), we obtained inhibition constants for the following compounds of this invention: […]
The compound `COc1ccc(S(=O)(=O)N(CC(O)CN2C(=O)CC[C@@H]2Cc2ccccc2)CC2CCCC2)cc1` (single isomer, unassigned) [Compound 15] came in with a Ki of 550 nM. In other words, the sub-micromolar range.
On the same count and under the same terms, in the case of `C=CCN1C[C@H](Cc2ccccc2)N(C[C@H](O)CN(CC2CCCC2)S(=O)(=O)c2ccc(OC)cc2)C1=O` [Compound 1] it was 160 nM; in that of `C=CCC1C[C@H](Cc2ccccc2)N(C[C@H](O)CN(CC2CCCC2)S(=O)(=O)c2ccc(OC)cc2)C1=O` (stereo partly shown) [Compound 7], 9 nM; in that of `COc1ccc(S(=O)(=O)N(CC(O)CN2[C@@H](Cc3ccccc3)CN(C)S2(=O)=O)CC2CCCC2)cc1` (stereo partly shown) [Compound 10], > 10000 nM.
Still for that read-out and setting: to `COc1ccc(S(=O)(=O)N(CC(O)CN2[C@@H](Cc3ccccc3)CCS2(=O)=O)CC2CCCC2)cc1` (stereo partly shown) [Compound 11] belongs > 10000 nM; to `CC(C)CN1CC(Cc2ccccc2)N(CC(O)CN(CC2CCCC2)S(=O)(=O)c2cccc(N)c2)C1=O` (stereo not shown) [Compound 12], > 10000 nM; to `COc1ccc(S(=O)(=O)N(CC(O)CN2C(=O)N(C)C[C@@H]2Cc2ccccc2)CC2CCCC2)cc1` (stereo partly shown) [Compound 13], 225 nM.
Still for that read-out and setting: in the case of `COc1ccc(S(=O)(=O)N(CC(O)CN2C(=O)N(Cc3ccccc3)C[C@@H]2Cc2ccccc2)CC2CCCC2)cc1` (stereo partly shown) [Compound 14] it was 16 nM.
Consider `COc1ccc(S(=O)(=O)N(CC2CCCC2)C[C@@H](O)CN2C(=O)C(C)C[C@@H]2Cc2ccccc2)cc1` (stereo partly shown) [Compound 16], for which the affinity, expressed as Ki, was 56 nM.
The same measure, in the same setting: in the case of `COc1ccc(S(=O)(=O)N(CC(O)CN2C(=O)C(C)(C)C[C@@H]2Cc2ccccc2)CC2CCCC2)cc1` (stereo partly shown) [Compound 17] it was 115 nM; in that of `CCC1C[C@H](Cc2ccccc2)N(CC(O)CN(CC2CCCC2)S(=O)(=O)c2ccc(OC)cc2)C1=O` (stereo partly shown) [Compound 18], 15 nM; in that of `COc1ccc(S(=O)(=O)N(CC(O)CN2C(=O)CC(O)[C@@H]2Cc2ccccc2)CC2CCCC2)cc1` (stereo partly shown) [Compound 19], 3000 nM.
The same measure, in the same setting: to `COc1ccc(S(=O)(=O)N(CC2CCCC2)C[C@@H](O)CN2C(=O)C(Cc3ccccc3)C[C@@H]2Cc2ccccc2)cc1` (stereo partly shown) [Compound 20] belongs 1.5 nM; to `COc1ccc(S(=O)(=O)N(CC(O)CN2C(=O)C(N)C[C@@H]2Cc2ccccc2)CC2CCCC2)cc1` (stereo partly shown) [Compound 21], > 20000 nM.
On the same count and under the same terms, in the case of `COc1ccc(S(=O)(=O)N(CC(O)CN2C(=O)C(NC(C)=O)C[C@@H]2Cc2ccccc2)CC2CCCC2)cc1` (stereo partly shown) [Compound 22] it was 600 nM; in that of `COc1ccc(S(=O)(=O)N(CC(O)CN2C(=O)C(CC(O)CO)C[C@@H]2Cc2ccccc2)CC2CCCC2)cc1` (stereo partly shown) [Compound 23], 70 nM; in that of `COc1ccc(S(=O)(=O)N(CC(O)CN2C(=O)C(CC3COCO3)C[C@@H]2Cc2ccccc2)CC2CCCC2)cc1` (stereo partly shown) [Compound 24], 350 nM.
In turn, `COc1ccc(S(=O)(=O)N(CC(O)CN2C(=O)C(CC(COC(C)=O)OC(C)=O)C[C@@H]2Cc2ccccc2)CC2CCCC2)cc1` (stereo partly shown) [Compound 25] registered a Ki of 83 nM.
The same measure, in the same setting: to `COc1ccc(S(=O)(=O)N(CC(O)CN2C(=O)C(CC3COC(=O)O3)C[C@@H]2Cc2ccccc2)CC2CCCC2)cc1` (stereo partly shown) [Compound 26] belongs 58 nM; to `COc1ccc(S(=O)(=O)N(CC(O)CN2C(=O)CNC[C@@H]2Cc2ccccc2)CC2CCCC2)cc1` (stereo partly shown) [Compound 27], 3000 nM; to `COc1ccc(S(=O)(=O)N(CC(O)CN2C(=O)COC[C@@H]2Cc2ccccc2)CC2CCCC2)cc1` (stereo partly shown) [Compound 28], 1400 nM.
For the compound `COc1ccc(S(=O)(=O)N(CC(O)CN2C(=O)[C@H](C)NC[C@@H]2Cc2ccccc2)CC2CCCC2)cc1` (stereo partly shown) [Compound 30], the Ki was > 15000 nM.
In the case of `COc1ccc(S(=O)(=O)N(CC(O)CN2C(=O)C(C)(C)NC[C@@H]2Cc2ccccc2)CC2CCCC2)cc1` (stereo partly shown) [Compound 31], the Ki was 390 nM.
The same measure, in the same setting: in the case of `COc1ccc(S(=O)(=O)N(CC(O)CN2C(=O)C3(CCCC3)NC[C@@H]2Cc2ccccc2)CC2CCCC2)cc1` (stereo partly shown) [Compound 32] it was 160 nM.
Same read-out and setting: to `COC(=O)C1NC[C@H](Cc2ccccc2)N(CC(O)CN(CC2CCCC2)S(=O)(=O)c2ccc(OC)cc2)C1=O` (stereo partly shown) [Compound 33] belongs 1100 nM; to `COC(=O)C1(C)NC[C@H](Cc2ccccc2)N(CC(O)CN(CC2CCCC2)S(=O)(=O)c2ccc(OC)cc2)C1=O` (stereo partly shown) [Compound 34], 950 nM.
The same measure, in the same setting: in the case of `COc1ccc(S(=O)(=O)N(CC2CCCC2)C[C@@H](O)CN2C(=O)C3(CCCCC3)OC[C@@H]2Cc2ccccc2)cc1` [Compound 47] it was 20 nM.

The assay is the same for the next values; noted with them: Inhibition constant measured at pH 6.0.
The compound `C=CCN1C[C@H](Cc2ccccc2)N(CC(O)CN2C[C@H]3CCCC[C@H]3CC2C(=O)NC(C)(C)C)C1=O` (stereo partly shown) [Compound 2] showed a Ki of 180 nM.
On the same count and under the same terms, in the case of `C=CCN1C[C@H](Cc2ccccc2)N(CC(O)CN2CCN(Cc3cccnc3)CC2C(=O)NC(C)(C)C)C1=O` (stereo partly shown) [Compound 3] it was 1800 nM.
Same read-out and setting: in the case of `CC(C)(C)NC(=O)C1C[C@@H]2CCCC[C@@H]2CN1CC(O)CN1C(=O)C(C)(C)NC[C@@H]1Cc1ccccc1` (stereo partly shown) [Compound 5] it was > 10000 nM; in that of `C=CCC1C[C@H](Cc2ccccc2)N(CC(O)CN2C[C@H]3CCCC[C@H]3CC2C(=O)NC(C)(C)C)C1=O` (stereo partly shown) [Compound 8], 5 nM; in that of `C=CCC1C[C@H](Cc2ccccc2)N(CC(O)CN2CCN(Cc3cccnc3)CC2C(=O)NC(C)(C)C)C1=O` (stereo partly shown) [Compound 9], 90 nM.
The same measure, in the same setting: in the case of `CC(C)(C)NC(=O)C1C[C@@H]2CCCC[C@@H]2CN1CC(O)CN1C(=O)N(Cc2ccccc2)C[C@@H]1Cc1ccccc1` (stereo partly shown) [Compound 76] it was 250 nM; in that of `CC(C)(C)NC(=O)C1C[C@@H]2CCCC[C@@H]2CN1CC(O)CN1[C@@H](Cc2ccccc2)CN(Cc2ccccc2)S1(=O)=O` (stereo partly shown) [Compound 77], 560 nM; in that of `C=CCN1CC(Cc2ccccc2)N(CC(O)CC(Cc2ccccc2)C(=O)NC2c3ccccc3CC2O)C1=O` (stereo not shown) [Compound 78], 10 nM.
The compound `CC(C)(C)NC(=O)C1CSCN1C(=O)C(O)CN1C(=O)C(Cc2ccccc2)CC1Cc1ccccc1` (stereo not shown) [Compound 102] registered a Ki of 1200 nM.
The same measure, in the same setting: in the case of `CC(C)(C)NC(=O)C1CSCN1C(=O)C(=O)CN1C(=O)C(C)(C)NC[C@@H]1Cc1ccccc1` (stereo partly shown) [Compound 105] it was > 10000 nM; in that of `CC(C)(C)NC(=O)C1CSCN1C(=O)C(=O)CN1C(=O)C(Cc2ccccc2)CC1Cc1ccccc1` (stereo not shown) [Compound 109], 250 nM; in that of `CC(C)(C)NC(=O)C1CSCN1C(=O)C(=O)CN1C(=O)CCC1Cc1ccccc1` (stereo not shown) [Compound 111], > 10000 nM.
On the same count and under the same terms, to `CCCC1CC(Cc2ccccc2)N(CC(=O)C(=O)N2CSCC2C(=O)NC(C)(C)C)C1=O` (stereo not shown) [Compound 112] belongs 8600 nM.
